Experimental data from paper PMC11275179, “Superior Anticancer and Antifungal Activities of New Sulfanyl-Substituted Niclosamide Derivatives” (Biomedicines, 2024).
≈ marks a conversion by molar mass, not a printed value. Where two headings read alike, the source gives them in different places.

Legend:
[1] = system: SK-GT-4 EAC cells; assay: MTT proliferation assay, SK-GT-4 cells; type: cell-based; conditions: SKGT4, 72 h, read-out: Antiproliferative activity IC50, SK-GT-4
Procedure: (§1) The FLO-1, SK-GT-4, and THP-1 cell lines were a gift from Dr. Shrikant Anant’s laboratory. Cells were grown in 10% fetal bovine serum (Fisher Scientific#FB12999102, Pittsburgh, PA, USA) and 1% antibiotic/antimycotic agent (Corning, Tewksbury, MA, USA) in RPMI 1640 media mixed with […] HEPES, L-glutamine (Corning, MA, USA). The cell lines were grown in a 5% CO2 incubator at 37 °C and used below 15 passages for the experiments.
(§2) The proliferation assay used a 3-(4,5-dimethylthiazol-2-yl)-2,5-diphenyltetrazolium bromide (MTT) assay. Briefly, 5000 FLO-1 and SK-GT-4 cells were counted and seeded in each well in 96-well plates. Post 24 h of incubation, EAC cells were treated with multiple concentrations (0–10 μM) of niclosamide (Cayman chemical#10649, Ann Arbor, MI, USA) and its analogs. At respective time points, 10 μL of stock MTT reagent (Millipore Sigma, Bedford, MA, USA) (3 mg/mL) was added to each well and incubated for 1–2 h under the dark at 37 °C. After incubation, the purple formazan crystals were dissolved in equal volumes of DMSO, and the absorbance of the resulting clear solutions was recorded at 570 nm using a microplate reader. A CCK-8 (Abcam, Cat no. ab228554, Burlingame, CA, USA) assay was used for the THP-1 cells. Briefly, 5000 cells were plated in every well of a 96-well plate. After 24 h of plating, THP-1 cells were treated with niclosamide and compound 3a. After the respective time point, an equal amount of CCK-8 reagent was pipetted to the wells and incubated for one hour in an incubator, and finally, the absorbance was recorded at 450 nm. The percent change in the proliferation was calculated by comparing the cell viability of the treated groups to the untreated control cells.

[2] = system: FLO-1 EAC cells; assay: MTT proliferation assay, FLO-1 cells; type: cell-based; conditions: FLO-1, 72 h, read-out: Antiproliferative activity IC50, FLO-1
Procedure: as §1, §2

[3] = system: M. mycetomatis MM55 strain; assay: In vitro susceptibility testing (MTS), MM55 strain; type: cell-based, Madurella mycetomatis; conditions: Madurella mycetomatis, MM55STRAIN; for IC50: read-out: Antifungal activity IC50; for IC90: read-out: Antifungal activity IC90
Procedure: (§3) The antifungal activity of the compounds was tested against a geographically and genetically diverse set of M. mycetomatis isolates. These included the MM55 strain from Sudan, strains I1, I3, and […] from India, strain P1 from Mali, strain SO1 from Somalia, strain Peru72012 from Peru, and strain CBS247.48 whose country of origin was unknown. All isolates were originally obtained from patients and identified and maintained in the Erasmus Medical Centre, Rotterdam, The Netherlands. In vitro susceptibility testing was performed as reported previously. The only difference was that tetrazolium compound 3-(4,5-dimethylthiazol-2-yl)-5-(3-carboxymethoxyphenyl)-2-(4-sulfophenyl)-2H-tetrazolium salt (MTS) was used as a viability dye in endpoint reading instead of 2,3-bis-(2-methoxy-4-nitro-5-sulfophenyl)-2H-tetrazolium-5-carboxanilide salt (XTT).

[4] = system: M. mycetomatis strains; assay: In vitro susceptibility testing (MIC), panel of eight strains; type: cell-based, Madurella mycetomatis; conditions: for MIC50: concentration at which 50% of the eight isolates were completely inhibited
Procedure: as §3

[5] = system: M. mycetomatis MM55 strain; assay: In vivo activity in M. mycetomatis-infected G. mellonella larvae; set-up: species or system Galleria mellonella; d10 AUC / d10 ΔAUC: unit not given here; conditions: 20 µM; for d10 AUC: area under the survival curve; for d10 Survival Corrected with Control: infected larvae, day 10; for d10 ΔAUC: versus control
Procedure: In vivo efficacy was determined in larvae of the greater wax moth Galleria mellonella. Since G. mellonella is an invertebrate, it is not subject to directive 2010/63/EU of the European law on animal testing. Larvae were housed in the dark in Petri dishes with Whatman paper. To determine the toxicity in G. mellonella larvae, test compounds were injected on three consecutive days at 24 h intervals in the last pro-leg of healthy larvae followed by monitoring of the survival for ten days. If no significant difference between the control and treated larvae was observed, the compound was considered nontoxic. Larvae were further used in infection studies to determine the in vivo activity of test compounds against M. mycetomatis according to our previously published protocol.

[6] = system: M. mycetomatis SO1 isolate; set-up: method as in PMID 34209118; conditions: read-out: IC50 against the Somalian SO1 isolate; cited from earlier work
[7] = Madurella mycetomatis, CBS247, strain CBS247.48, read-out: MIC, CBS247.48
[8] = Madurella mycetomatis, strain I1, read-out: MIC, I1
[9] = Madurella mycetomatis, strain I3, read-out: MIC, I3
[10] = Madurella mycetomatis, strain I11, read-out: MIC, I11
[11] = Madurella mycetomatis, strain MM55, read-out: MIC, MM55
[12] = Madurella mycetomatis, strain P1, read-out: MIC, P1
[13] = Madurella mycetomatis, strain Peru72012, read-out: MIC, Peru72012
[14] = Madurella mycetomatis, strain SO1, read-out: MIC, SO1

IC50 [1] [µM]	IC50 [3] [µM]	IC90 [3] [µM]	MIC [4, 7] [µM]	MIC [4, 8] [µM]	MIC [4, 9] [µM]	MIC [4, 10] [µM]	MIC [4, 11] [µM]	MIC [4, 12] [µM]	MIC [4, 13] [µM]	MIC [4, 14] [µM]	MIC50 ([4]; Madurella mycetomatis) [µM]	melting point [°C]	MIC ([4]; strain MM55, read-out: MIC, MM55) [µM]	Compound	IC50 [2] [µM]	d10 AUC [5]	d10 Survival Corrected with Control [5] [%]	d10 ΔAUC [5]	IC50 [6] [µM]
1.38 ± 0.45	1.3 ± 0.7	2 ± 0.1	2 (≈ 0.747 µg/mL)	1 (≈ 0.374 µg/mL)	1 (≈ 0.374 µg/mL)	2 (≈ 0.747 µg/mL)	2 (≈ 0.747 µg/mL)	0.5 (≈ 0.187 µg/mL)	1 (≈ 0.374 µg/mL)	1 (≈ 0.374 µg/mL)	1 (≈ 0.374 µg/mL)	197		O=C(Nc1cccc(S(F)(F)(F)(F)F)c1)c1cc(Cl)ccc1O [Compound 2c, 5-Chloro-2-hydroxy-N-(3-pentafluorosulfanylphenyl)benzamide]	1.38 ± 0.4	346.7	−3.33	15	
7.1 ± 0.75	6.6 ± 2	8.4 ± 1.1												CCc1ccc(NC(=O)c2cc(Cl)ccc2O)cc1 [Compound 2d]	6.13 ± 0.96				
	0.9 ± 0.2	1.1 ± 0.2	2 (≈ 0.631 µg/mL)	1 (≈ 0.316 µg/mL)	1 (≈ 0.316 µg/mL)	2 (≈ 0.631 µg/mL)	2 (≈ 0.631 µg/mL)	1 (≈ 0.316 µg/mL)	1 (≈ 0.316 µg/mL)	1 (≈ 0.316 µg/mL)	1 (≈ 0.316 µg/mL)		1.0 (≈ 0.316 µg/mL)	O=C(Nc1ccc(C(F)(F)F)cc1)c1cc(Cl)ccc1O [Compound 2e]		453.3	3.33	121.6	
														O=C(Nc1cccc(C(F)(F)F)c1)c1cc(Cl)ccc1O [MMV665807]					9.93
